In article PMC9644403, “L-type Amino Acid Transporter 1 Utilizing Ferulic Acid Derivatives Show Increased Drug Delivery in the Mouse Pancreas Along with Decreased Lipid Peroxidation and Prostaglandin Production” (Molecular Pharmaceutics, 2022):
Read-outs that look alike come from different tables or passages of the source. Marks after values point to notes of the source that are not given here.

Assays:
[1] = In vivo pharmacokinetics in mouse pancreas, liver and kidney after i.p. bolus; details: 25 μmol/kg i.p.; for Cmax kidney / Cmax liver / Cmax pancreas / AUCtotal kidney / AUCtotal liver / AUCtotal pancreas / Kp / half-life / Kp,uu (unbound tissue-to-plasma AUC ratio) / Tmax / AUCu, kidney / AUCu, liver / AUCu, pancreas / Cmax, u kidney / Cmax, u liver / Cmax, u pancreas: mice; for AUCtotal kidney / AUCtotal liver / AUCtotal pancreas: n = 3; for pancreas AUC, times higher in comparison to the original FA: mouse pancreas; for Kp / half-life / Kp,uu (unbound tissue-to-plasma AUC ratio) / Tmax: mouse, ip, 25 umol/kg; for Kp: tissue/plasma partition coefficient (eq 2); for half-life: elimination half-life; for AUCu, kidney / AUCu, liver / AUCu, pancreas: unbound (eq 3); for Cmax, u kidney / Cmax, u liver / Cmax, u pancreas: unbound
Method: The pharmacokinetic study of FA, D1, and D2 was performed as previously described,[17] in which the pharmacokinetic parameters for the plasma and brain have been reported. Briefly, the studied compounds were dissolved in a vehicle containing 0.9% (w/v) NaCl in water, and a dose of 25 μmol/kg of the FA, D1, or D2 (n = 3 per compound at each time point) was administered as a bolus intraperitoneal (i.p.) injection for mice. The mice were anesthetized using a mixture of ketamine (140 mg/kg) and xylazine (8 mg/kg) and sacrificed by decapitation at selected time points between 10 and 360 min. The kidney, liver, and pancreas were rapidly collected, snap-frozen on dry ice, and stored at −80 °C until analyzed.
The frozen tissues were weighed and homogenized with ultrapure water (1:3 w/v) by sonicating twice for 5 s with the SoniPrep 150 Plus disintegrator (MSE Ltd., London, UK). The proteins were precipitated by diluting homogenate 1:3 (v/v) with acetonitrile containing the internal standards—chlorzoxazone for FA and diclofenac for derivatives. Samples were then centrifuged at 14 000 × g for 10 min at 4 °C. Supernatants were collected and diluted further 1:1 with ultrapure water and transferred into HPLC vials for the analysis by liquid chromatography-tandem mass spectrometry (LC–MS/MS).
Drug concentrations were analyzed using the LC–MS/MS method described previously,[17] with minor changes. Briefly, the analysis was carried out with an Agilent 1200 Series Rapid Resolution LC System with an Agilent Zorbax XBD-C18 rapid resolution high-throughput (RRHT) column (50 mm × 4.6 mm, 1.8 μm) and an Agilent 6410 triple quadrupole mass spectrometer equipped with an electrospray ionization source (Agilent Technologies, Palo Alto, CA, USA). The LC eluents were water (eluent A) and acetonitrile (eluent B), both containing 0.1% (v/v) formic acid. FA was separated with the following gradient: 0–1 min: 5% B, 1–2 min: 5% B → 90%, 2–4 min: 90% B, 4–4.1 min: 90% B → 5%, and 4.1–7 min: 5% B. For the derivatives, the gradient was as follows: 0–1 min: 10% B, 1–2 min: 10% B → 90%, 2–5 min: 90% B, 5–5.1 min: 90% B → 10%, and 5.1–8 min: 10% B. In both methods, the LC flow rate was 0.3 mL/min, the column temperature was set to 40 °C, and the sample injection volume was 5 μL.
The LC–MS/MS data acquisition for the FA was performed in a negative ion mode with the following conditions: drying gas flow 6.5 l/min with the temperature of 300 °C, nebulizer gas pressure of 20 psi, and capillary voltage of 4 000 V. MRM transitions were 193 → 149 for FA and 168 → 132 for chlorzoxazone. Fragmentor voltages were 100 and 120 V, respectively, and the collision energy was 20 V for both. For D1 and D2, the analysis was performed in a positive ion mode with the following conditions: drying gas flow of 6.5 l/min with the temperature of 300 °C, nebulizer gas pressure of 20 psi, and capillary voltage of 3 000 V. MRM transitions were 371 → 176.8 for D1, 357 → 310.9 for D2, and 296 → 250 for the diclofenac. The fragmentor voltages were 60, 40, and 100 V, and the collision energies were 16, 8, and 10 V, respectively. The data acquisition software was Agilent MassHunter Workstation software (version B.03.01), whereas Quantitative Analysis (B.09.00) software was used for data processing and analysis. The lower limit of quantification for the FA was 0.05 nmol/g and was 0.01 nmol/g for derivatives. The methods were linear, selective, accurate, and precise in the calibration range of 0.05–300 nmol/g for FA and 0.01–300 nmol/g for derivatives.
The time–concentration profiles for studied drugs were calculated using GraphPad Prism v. 5.03 software (GraphPad Software, San Diego, CA, USA). The area under curve (AUC) was calculated using the linear trapezoidal method, providing simultaneously the numeric pharmacokinetic parameters, such as tmax and Cmax. The half-life of elimination (t1/2β) was calculated from a logarithmic slope based on at least the last three detected timepoints. […]

[2] = mouse plasma, equilibrium dialysis, 4 h incubation, n = 2; cited from earlier work
[3] = Non-specific binding in S9 fractions of mouse liver, kidney and pancreas homogenates, rapid equilibrium dialysis; assay type: in vitro ADME; details: for fraction unbound at 4 h, 50 μM: pH 7.4, 37 °C, mean ± SD (n = 3); for unbound (free) portion, range over liver, kidney and pancreas: range over the studied mouse tissues
Method: The unbound fractions of FA, D1, and D2 were determined in the S9 subcellular fractions of the mouse liver, kidneys, and pancreas using rapid equilibrium dialysis (RED) plates (Thermo Fisher Scientific, Inc., Waltham, MA, USA). Briefly, the studied compounds were spiked at a 50 μM concentration into 100 μL of mouse homogenate S9 subcellular fraction and transferred to the reaction chamber. Homogenate dilutions were 1:4 (w/v) for the liver and kidney, and 1:20 (w/v) for the pancreas. A total of 350 μL of TBS (pH 7.4) buffer was added to the buffer chamber of the RED plate. The dialysis plate was incubated at 37 °C with shaking for 4 h. Samples of 50 μL were collected from both the reaction and buffer chambers, and equal amounts of buffer and S9 fraction were added to the collected samples, respectively, to yield identical sample matrices. The proteins were precipitated by diluting samples with 100 μL of ice-cold acetonitrile. Samples were centrifuged at 12 000 × g for 10 min, and the supernatants were collected for HPLC analysis.
The unbound fraction (fu,tissue) of the FA and its derivatives was calculated using eq 1 [drawing 1] 1 where D is the dilution factor of studied tissue homogenate, and fu,homogenate is the distribution ratio of the studied compound measured in the reaction and buffer chambers within the equilibrium dialysis assay.[29]

[4] = mice, cited from earlier work; for AUCtotal plasma of released FA / AUCu, plasma of released FA / Cmax, u plasma of released FA: FA released from the dosed derivative; for AUCtotal plasma of released FA / AUCu, plasma of released FA / Cmax, u plasma of released FA / tmax plasma / Cmax / AUCu, plasma / Cmax, u plasma: 25 μmol/kg i.p.; for AUCtotal plasma: 25 μmol/kg i.p. bolus; for peak concentration in plasma: after a high bolus dose (25 μmol/kg i.p.); for Cmax: read-out: Cmax plasma; for AUCu, plasma / Cmax, u plasma: unbound
[5] = kidney, read-out: t1/2β, kidney
[6] = kidney, read-out: AUCu, kidney/AUCu plasma
[7] = kidney, read-out: tmax kidney (converted)
[8] = liver, read-out: AUCu, liver/AUCu plasma
[9] = liver, read-out: tmax liver (converted)
[10] = pancreas, read-out: Kp, pancreas
[11] = pancreas, read-out: t1/2β, pancreas
[12] = pancreas, read-out: AUCu, pancreas/AUCu plasma
[13] = pancreas, read-out: tmax pancreas (converted)
[14] = S9 subcellular fraction of kidney homogenate, mouse kidney S9, 50 μM, read-out: fu, kidney (%)
[15] = S9 subcellular fraction of liver homogenate, mouse liver S9, 50 μM, read-out: fu, liver (%)
[16] = S9 subcellular fraction of pancreas homogenate, mouse pancreas S9, 50 μM, read-out: fu, pancreas (%)

Cmax kidney [1] [nmol/g]	Cmax liver [1] [nmol/g]	Cmax pancreas [1] [nmol/g]	AUCtotal kidney [1]	AUCtotal liver [1]	AUCtotal pancreas [1]	Kp ([1]; kidney, read-out: Kp, kidney)	half-life [1, 5] [min]	Kp,uu (unbound tissue-to-plasma AUC ratio) [1, 6]	Tmax [1, 7] [min]	Kp ([1]; liver, read-out: Kp, liver)	half-life ([1]; liver, read-out: t1/2β, liver) [min]	Kp,uu (unbound tissue-to-plasma AUC ratio) [1, 8]	Tmax [1, 9] [min]	Kp [1, 10]	Kp,uu (unbound tissue-to-plasma AUC ratio) [1, 12]	Tmax [1, 13] [min]	AUCu, kidney [1]	AUCu, liver [1] [nmol·min/g]	AUCu, pancreas [1]	Compound	further results
20.4	44.3	168	415 nmol·min/g	1 769 nmol/g × min	5 182 nmol/g × min	0.4	11.8	0.74	10	1.7	11.7	2.9	10	4.97	5.54	10	194 nmol·min/g	752	1 452 nmol/g × min	COc1cc(C=CC(=O)NCc2cccc(CC(N)C(=O)O)c2)ccc1O (stereo not drawn) [derivative 1]	pancreas AUC, times higher in comparison to the original FA [1]: 129.2 times; half-life [1, 11]: 9.9 min; Cmax, u kidney [1]: 9.6 nmol/g; Cmax, u liver [1]: 18.8 nmol/g; Cmax, u pancreas [1]: 47.1 nmol/g; fu, plasma (%) [2]: 19.66–30.62 ^b %; fraction unbound at 4 h, 50 μM [3, 14]: 0.469 ± 0.0593; fraction unbound at 4 h, 50 μM [3, 15]: 0.425 ± 0.0544; fraction unbound at 4 h, 50 μM [3, 16]: 0.28 ± 0.0147; unbound (free) portion, range over liver, kidney and pancreas [3]: 28.02–46.85%; AUCtotal plasma of released FA [4]: 507 nmol·min/mL; AUCu, plasma of released FA [4]: 54 nmol·min/mL; Cmax, u plasma of released FA [4]: 0.3 µM; AUCtotal plasma [4]: 1042 nmol·min/mL; tmax plasma [4]: 10 min; peak concentration in plasma [4]: 41.9 µM; Cmax [4]: 41.9 µM; AUCu, plasma [4]: 262 nmol·min/mL; Cmax, u plasma [4]: 10.5 µM
196	66.4	253	3 368 nmol/g × min	2 100 nmol/g × min	8 172 nmol/g × min	7.27	8	25.7	10	4.54	13.1	12.4	10	17.6	30.6	30	1 028 nmol/g × min	496	1 226 nmol/g × min	COc1cc(/C=C/C(=O)Nc2cccc(C[C@H](N)C(=O)O)c2)ccc1O [derivative 2]	pancreas AUC, times higher in comparison to the original FA [1]: 203.8 times; half-life [1, 11]: 33.8 min; Cmax, u kidney [1]: 59.8 nmol/g; Cmax, u liver [1]: 15.7 nmol/g; Cmax, u pancreas [1]: 38.0 nmol/g; fu, plasma (%) [2]: 8.37–9.01 ^b %; fraction unbound at 4 h, 50 μM [3, 14]: 0.305 ± 0.0063; fraction unbound at 4 h, 50 μM [3, 15]: 0.236 ± 0.0109; fraction unbound at 4 h, 50 μM [3, 16]: 0.15 ± 0.0206; unbound (free) portion, range over liver, kidney and pancreas [3]: 15.01–30.52%; AUCtotal plasma of released FA [4]: 75 nmol·min/mL; AUCu, plasma of released FA [4]: 8 nmol·min/mL; Cmax, u plasma of released FA [4]: 0.2 µM; AUCtotal plasma [4]: 463 nmol·min/mL; tmax plasma [4]: 10 (released 10) min; Cmax [4]: 21.1 µM; AUCu, plasma [4]: 40 nmol·min/mL; Cmax, u plasma [4]: 1.8 µM

Compound	Cmax kidney [1] [nmol/g]	Cmax liver [1] [nmol/g]	Cmax pancreas [1] [nmol/g]	AUCtotal kidney [1]	AUCtotal liver [1]	AUCtotal pancreas [1]	Kp ([1]; kidney, read-out: Kp, kidney)	half-life [1, 5] [min]	Kp,uu (unbound tissue-to-plasma AUC ratio) [1, 6]	Tmax [1, 7] [min]	Kp ([1]; liver, read-out: Kp, liver)	half-life ([1]; liver, read-out: t1/2β, liver) [min]	Kp,uu (unbound tissue-to-plasma AUC ratio) [1, 8]	Tmax [1, 9] [min]	Kp [1, 10]	Kp,uu (unbound tissue-to-plasma AUC ratio) [1, 12]	Tmax [1, 13] [min]	AUCu, kidney [1]	AUCu, liver [1] [nmol·min/g]	AUCu, pancreas [1]	further results
COc1cc(C=CC(=O)O)ccc1O [ferulic acid, 4-hydroxy-3-methoxycinnamic acid]	14.4	18.0	5.4	140 nmol·min/g	408 nmol·min/g	40.1 nmol·min/g	0.24	3.4	2.21	10	0.69	11.2	5.5	10	0.07	0.64	10	139 nmol·min/g	347	40.1 nmol·min/g	Cmax, u kidney [1]: 14.3 nmol/g; Cmax, u liver [1]: 15.3 nmol/g; Cmax, u pancreas [1]: 5.4 nmol/g; fu, plasma (%) [2]: 9.94–11.51 ^b %; fraction unbound at 4 h, 50 μM [3, 14]: 0.991 ± 0.105; fraction unbound at 4 h, 50 μM [3, 15]: 0.849 ± 0.145; fraction unbound at 4 h, 50 μM [3, 16]: 0.993 ± 0.0196; unbound (free) portion, range over liver, kidney and pancreas [3]: 84.94–99.30%; AUCtotal plasma [4]: 591 nmol·min/mL; tmax plasma [4]: 10 min; peak concentration in plasma [4]: 33.2 µM; Cmax [4]: 33.2 µM; AUCu, plasma [4]: 63 nmol·min/mL; Cmax, u plasma [4]: 3.6 µM
